Laboratory results: patent US20210378193A1, “HAPLOID EMBRYOGENESIS” (STICHTING WAGENINGEN RESEARCH, priority 2013, published 2021)

System: B. napus DH 12075 microspore-derived embryos
Assay: conversion of microspore-derived embryos to seedlings (roots, shoots)
Assay type: cell-based, Brassica napus
Details: embryos transferred to regeneration medium
From the text: All of the embryos that produced roots, except for the short embryo type, initiated root development from the root meristem, as evidenced by the development of roots within a few days of growth on germination medium.
In FIG. 12B, different types of embryos derived from different populations of microspores/pollen treated with DMSO (control) or different concentrations of HDACi were transferred to a regeneration medium and evaluated for their ability to produce shoots (a measure of conversion).

SMILES: O=C(CCCCCCC(=O)Nc1ccccc1)NO [SAHA, suberoylanilide hydroxamic acid]
- germination (ability to produce shoots, a measure of conversion) compared to the control: improved
